Numbering of substitutions follows the chain as printed. Read-outs that look alike come from different tables or passages of the source. Where a SMILES comes first, the peptide text is derived from it. Bridges are numbered along the chain shown (N, C = ends).

One assay addresses T1, RGS4Δ51N (Rattus norvegicus, UniProt P49799).
T1 construct: MBP (N, cleaved yes); His6 (N, cleaved yes); made in house
T1 sequence (P49799 52-205 limits assumed): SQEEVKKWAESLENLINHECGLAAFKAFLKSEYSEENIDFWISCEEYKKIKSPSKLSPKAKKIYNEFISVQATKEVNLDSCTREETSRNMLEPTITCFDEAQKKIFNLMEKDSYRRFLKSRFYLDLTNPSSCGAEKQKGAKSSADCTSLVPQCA
The experiment in a line: MALDI MS analysis of covalent adduct with RGS4Δ51N. The settings on record: 250 μM 5nd. On the procedure: To directly test for the formation of a covalent adduct between 5nd and RGS4, we performed mass spectrometry (MS) analysis. The RGS4Δ51N protein, following TEV-protease cleavage from the MBP-His6 construct, was treated with 5nd at a 50:1 molar ratio. An adduct to the protein that is consistent with the mass of 5nd binding through a disulfide bridge was observed by MS (Figure 4, mass shift observed: Δ999.2 ± 1; expected: Δ998.5). […] There is also a small peak that may represent two peptides per RGS (observed: Δ1999.1 ± 2; expected: Δ1997.0).
Figure 4 MS analysis of RGS4 with and without 5nd pretreatment. RGS4Δ51N was cleaved from the MBP-His6 construct and subject to MALDI MS after pretreatment with DMSO (A) or 5nd (250 μM) (B). Both spectra show the region between 4,000 and 30,000 m/z and have the peak at 18158.8 or 18158.2 m/z for A and B, respectively, which corresponds to the cleaved RGS4Δ51N protein (black arrows). The spectrum in B also has a peak at 19158 m/z that corresponds to a peptide adduct (grey arrows). There is a very small peak at 20157.9 that may correspond to 2 peptides per RGS (grey arrows). The inset is a blow-up of the region between 17500 and 20500 m/z.
Total mass MS of 5 μM RGS4Δ51N was analyzed on a MicroMX MALDI MS instrument in positive ion mode with an accuracy of ± 0.1% after pretreatment with DMSO or 250 μM 5nd. […]

The target in the next assay is T2, RGS4 C95A (Rattus norvegicus, UniProt P49799, C95A).
T2 construct: made in house
T2 sequence (P49799 52-205 C95A limits assumed): T1 sequence (P49799 52-205 limits assumed) with C44A
Put plainly: FCPIA, RGS4 cysteine mutant C95A. It counts as binding. As to conditions: read-out: 5nd logIC50 (converted). The method, then: (§1) Figure 5 Dose curves of 5nd on various RGS4 cysteine mutants. Various concentrations of 5nd were tested for disruption of the RGS4-Gαo interaction for C95A (5 nM), or […], C71A (5nM) or C148A (5nM) (B), A95C in the -7C (5nM), or A132C in the -7C (5nM) (C), A71C in the -7C (5nM), or A148C in the -7C (5nM) (D) or the mutant with no cysteines in the domain (20 nM) or the C-terminus (20 nM) (E) in the FCPIA (mean ± S.E.M., n ≥ 3).
Proteins were expressed, purified and labeled as described previously. The mutagenesis was done using the "QuickChange Multi Site-Directed Mutagenesis Kit" from Stratagene according to the manufacturer's protocol. The construct of RGS4 used in these studies is a maltose binding protein (MBP-) fusion protein of the RGS4 sequence from which the amphipathic N-terminal helix has been removed (i.e. MBP-RGS4Δ51N). For simplicity in the text, this will be referred to as RGS4. All other RGS proteins were human sequences and were used as Mpb fusions: RGS7 RGS domain (aa: 305–453), RGS8 full length, RGS16 full length, and RGS19ΔC11 (amino acids 1–209). To cleave RGS4Δ51N from the MBP-His6 construct for MS analysis, MBP-His6-RGS4Δ51N was treated with 15% MBP-His6-TEV protease S219V [11] for 22 hours at 4°C and purified over a Ni-NTA column.
FCPIA was performed as previously published.

In assay [1] the target is T3, RGS4 no Cys in RGS domain (Rattus norvegicus, UniProt P49799, C132A/C148A/C71A/C95A).
T3 construct: made in house
T3 sequence (P49799 52-205 C71A/C95A/C132A/C148A limits assumed): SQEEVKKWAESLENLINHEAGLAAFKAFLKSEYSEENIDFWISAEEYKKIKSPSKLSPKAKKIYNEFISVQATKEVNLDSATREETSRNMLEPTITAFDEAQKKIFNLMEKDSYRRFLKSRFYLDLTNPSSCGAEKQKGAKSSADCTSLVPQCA
Put plainly: FCPIA, RGS4 mutant with no Cys in RGS domain. In kind it is binding. On the procedure: (§2) Since 5nd forms an irreversible, DTT-sensitive bond with RGS, it was suspected that it binds covalently to a cysteine in the protein through a disulfide bridge. Indeed, removal of all 7 cysteines (termed the -7C mutant) from RGS4 greatly diminished 5nd activity (logIC50 of -3.24 ± 0.14 for -7C vs. -4.36 ± 0.02 for wild type) (Figure 5, Table 2).
as §1
(§3) Proteins were expressed, purified and labeled as described previously. The mutagenesis was done using the "QuickChange Multi Site-Directed Mutagenesis Kit" from Stratagene according to the manufacturer's protocol. The construct of RGS4 used in these studies is a maltose binding protein (MBP-) fusion protein of the RGS4 sequence from which the amphipathic N-terminal helix has been removed (i.e. MBP-RGS4Δ51N). For simplicity in the text, this will be referred to as RGS4. […]

Another assay has as its target T4, RGS4 -7C (Rattus norvegicus, UniProt P49799, C132A/C148A/C183A/C197A/C204A/C71A/C95A).
T4 construct: made in house
Put plainly: FCPIA, RGS4 -7C mutant (all 7 cysteines removed). In kind it is binding. As to conditions: read-out: 5nd logIC50 (converted). On the procedure:
as §2, §1, §3

In a further assay the target is T5, RGS4 (Rattus norvegicus, UniProt P49799).
T5 construct: made in house
T5 sequence (P49799 52-205 limits assumed): T1 sequence (P49799 52-205 limits assumed)
Put plainly: FCPIA (flow cytometry protein interaction assay), RGS4-Gαo interaction, wild type RGS4 (MBP-RGS4Δ51N). It counts as binding. As to conditions: 100 μM. Background: A flow cytometer gives signals particle by particle.

The target in a further assay is T6, RGS4 A95C, -7C (Rattus norvegicus, UniProt P49799, C132A/C148A/C183A/C197A/C204A/C71A).
T6 construct: made in house
T6 sequence (P49799 52-205 C71A/C132A/C148A/C183A/C197A/C204A): as the sequence (P49799 52-205 C71A/C95A/C132A/C148A limits assumed) above, with A44C, C132A, C146A, C153A counted along it
The experiment in a line: FCPIA, RGS4 A95C in the -7C. In kind it is binding. As to conditions: read-out: 5nd logIC50 (converted). The method, then: as §1
The previous experiments tested which cysteines are necessary for inhibition by 5nd. In an alternative approach, we added cysteines back to the -7C mutant to determine which might be sufficient for 5nd activity. […] Furthermore, Cys132 is involved in the actions but this is clearly not sufficient to explain them. Thus it is concluded that 5nd is at least partially non-selective in its cysteine modification.
as §3

T4 sequence (P49799 52-205 C71A/C95A/C132A/C148A/C183A/C197A/C204A): as the sequence (P49799 52-205 C71A/C95A/C132A/C148A limits assumed) above, with C132A, C146A, C153A counted along it

Turning to `CC(C)C[C@@H]1NC(=O)CNC(=O)[C@H](CCCCN)NC(=O)[C@@H](NC(=O)[C@H](Cc2c[nH]c3ccccc23)NC(=O)[C@@H](N)Cc2ccc(O)cc2)CSSC[C@@H](C(=O)N[C@@H](CCCCN)C(N)=O)NC1=O` [Peptide 5nd, Tyr-Trp-c [Cys-Lys-Gly-Leu-Cys]-Lys-NH2, S-S] (H-YWCKGLCK-NH2; disulfide 3-7), the “mass shift observed, adduct of one peptide per RGS” value at RGS4Δ51N (5 μM RGS4Δ51N (50:1), expected Δ998.5) worked out at 999.2 ± 1. Moreover, the “mass shift observed, small peak that may represent two peptides per RGS” value at RGS4Δ51N (5 μM RGS4Δ51N, expected Δ1997.0) came to 1999.1 ± 2. Also, the IC50 on RGS4 C95A was 19.5 µM; in assay [1] (no Cys in RGS domain, read-out: 5nd logIC50 (converted)), 158 µM; at RGS4 -7C, 575 µM; at RGS4 A95C, -7C it was 263 µM. Moreover, the “reduction of potency by removal of all 4 cysteines from the RGS domain” value in assay [1] (versus wild type RGS4) is given as 3.6 fold. Moreover, the inhibition – broadly, the drop in the measured response relative to a control, in per cent – at 100 µM is 15 ± 4% on RGS4 (beads washed in buffer with 1 mM DTT, read-out: percent inhibition of RGS4-Gαo after DTT wash) and 75 ± 11% at RGS4 (beads washed in buffer without DTT, read-out: percent inhibition of RGS4-Gαo remaining after washing of the beads).

These data come from PMC2700083, “A covalent peptide inhibitor of RGS4 identified in a focused one-bead, one compound library screen” (BMC Pharmacology, 2009).
